According to patent publication US11911417B2, “Nerve growth promoter and method for producing same, internal preparation, medium additive, cell dilution additive, medium, cell dilution, antioxidant and method for producing same, external preparation, and wound treatment agent and method for producing same” (LAIMU CORPORATION, priority 2016, dated 2024):

Experiment: radical trapping test (ABTS radical cations)
Settings: 20 μM, 5 to 120 minutes, FIG. 5
Description: The antioxidant 1 (freeze-dried powder of protease degradation product) produced was evaluated for the radical trapping activity against ABTS radical cations (unnatural model radical), according to the spectrophotometric method described in Biol. Pharm. Bull., 29, 766-771 (2006). Specifically, the antioxidant 1 was added to 3 mL of a reaction solution containing ABTS radical cations to be a final concentration of 300 μg/mL, and at the time after 5 minutes, 15 minutes, 30 minutes, 60 minutes and 120 minutes, the residual ratio of the ABTS radical cations was determined. For comparison, a system added with ascorbic acid or arbutin in an amount of 20 μM each in place of the antioxidant 1, and a system added with water in the same amount as that of the antioxidant 1 (control) were tested in the same manner.

Row | Structure (SMILES) | course of the radical residual ratio with the lapse of time
1 | OC[C@H]1O[C@@H](Oc2ccc(O)cc2)[C@H](O)[C@@H](O)[C@@H]1O [arbutin] | did not change after further lapse of time
2 | O=C1O[C@H]([C@@H](O)CO)C(O)=C1O [ascorbic acid] | did not change after further lapse of time
